Reference: US6479460B1, “Synthetic peptides and pseudopeptides having osteogenic activity and pharmaceutical compositions containing the same” (Yissum Research Development Company of the Hebrew …, priority 1996, dated 2002)
Primed or numbered codes have the meaning given here. Where no end group is shown, it is not given here. [ ]: non-standard residue; d: D form. The star is where a group is joined. ol = C-terminal alcohol (reduced C-terminus); Desaminotyrosyl = O=C(CCc1ccc(O)cc1)*; Hydrocinnamoyl = O=C(CCc1ccccc1)*; NMeF = CN[C@@H](Cc1ccccc1)C(=O)O; ol″ = C-terminal alcohol; Propionyl = CCC(=O)*; GABA = NCCCC(=O)O; βAla = NCCC(=O)O; Sar = CNCC(=O)O

What was measured:
[1] = system: fibroblastic NIH 3T3 cells; test: Proliferation assay, fibroblastic NIH 3T3 cells; assay type: cell-based; settings: for Relative in vitro potency (95% confidence limit) NIH 3T3 cells: analog concentration 10^−11M, mean cell number relative to positive control OGP(1-14) = 1.00
Text: (§1) Some of the analogs were subjected to a dose response analysis.

[2] = system: osteoblastic MC3T3 E1 cells; test: Proliferation assay, osteoblastic MC3T3 E1 cells; assay type: cell-based; settings: for Relative in vitro potency (95% confidence limit) MC3T3 E1 cells: analog concentration 10^−13M, mean cell number relative to positive control OGP(1-14) = 1.00
Text: as §1

Substance	Relative in vitro potency (95% confidence limit) NIH 3T3 cells [1]	Relative in vitro potency (95% confidence limit) MC3T3 E1 cells [2]	activity compared to OGP(1-14) ([1]; NIH3T3 cells)	activity compared to OGP(1-14) ([2]; MC3T3 E1 cells)
(desamino[Phe^10]2OGP(10-14)	0.24	0.18	–	–
Nα-Ac—OGP(11-14) (Ac-GFGG)	0.22	0.21	–	–
OGP(11-14)-ol (GFGG-{ol″})	0.38	0.24	–	–
[Ala^10]OGP(10-14) (AGFGG)	0.17	0.29	–	–
[Ala^11]OGP(10-14) (YAFGG)	0.31	0.18	–	–
[Ala^13]OGP(11-14) (GFAG)	0.10	0.22	–	–
[Ala^14]OGP(11-14) (GFGA)	0.10	0.17	–	–
[D-Ala^10]OGP(10-14)	0.16	0.12	–	–
[D-Ala^13]OGP(10-14)	0.26	0.14	–	–
[Phe^10]OGP(10-14) (FGFGG)	0.32	0.41	–	–
[β-Ala^11]OGP(10-14) (Y[βAla]FGG)	0.17	0.29	–	–
c(Gly-Tyr-Gly-Phe-Gly-Asp)-OH (GYGFGD-OH; lactam (positions not given here); also: cyclic, closure site not given here)	0.16	0.15	–	–
c(Gly-Tyr-Gly-Phe-Gly-Gly) (GYGFGG; cyclic)	0.20	0.26	–	–
c(Tyr-Cly-Phe-Gly) (YGFG; cyclic)	0.43	0.35	–	–
c(Tyr-Gly-Phe-Gly-Asp)-OH (YGFGD-OH; lactam (positions not given here); also: cyclic, closure site not given here)	0.11	0.14	–	–
c(β-Ala-Tyr-Gly-Phe-Gly-Gly) (cyclo([βAla]YGFGG); SMILES O=C1CNC(=O)CNC(=O)[C@H](Cc2ccccc2)NC(=O)CNC(=O)[C@H](Cc2ccc(O)cc2)NC(=O)CCN1)	0.37	0.36	–	–
c(γ-Abu-Tyr-Gly-Phe-Gly-Gly) (cyclo([GABA]YGFGG); SMILES O=C1CNC(=O)CNC(=O)[C@H](Cc2ccccc2)NC(=O)CNC(=O)[C@H](Cc2ccc(O)cc2)NC(=O)CCCN1)	0.22	0.20	–	–
c(δ-Ala-Tyr-Gly-Phe-Gly-Asp)-OH	0.11	0.20	–	–
c(δ-Ala-Tyr-Gly-Phe-Gly-Gly)	0.18	0.14	–	–
des[Gly^11]OGP(10-14)	0.17	0.21	–	–
desamino Tyr-CH2-Gly-Phe-Gly-Gly ([Desaminotyrosyl]GFGG; also: reduced amide bond Tyr-CH2-Gly) [desamino[Tyr^10ψ(CH2NH)Gly^11]OGP(10-14)]	0.79	0.81	–	–
desamino Tyr-Gly-N(CH3)-CH(CH2C6H5)-C(O)-Gly-Gly ([Desaminotyrosyl]G[NMeF]GG) [desamino[Tyr^10,N(Me)-Phe^12]OGP(10-14)]	0.67	0.52	–	–
desamino Tyr-Gly-NH-CH(CH2C6H5)-CH2-Gly-Gly ([Desaminotyrosyl]GFGG; also: reduced amide bond Phe-Gly (NH-CH(CH2C6H5)-CH2-NH))	0.88	0.70	–	–

Substance	Relative in vitro potency (95% confidence limit) NIH 3T3 cells [1]	Relative in vitro potency (95% confidence limit) MC3T3 E1 cells [2]	activity compared to OGP(1-14) ([1]; NIH3T3 cells)	activity compared to OGP(1-14) ([2]; MC3T3 E1 cells)
desamino Tyr-Gly-Phe-NH-CH2-CH2-CH2-CH2-C(O)-OH	0.188	0.78	–	–
desamino Tyr-Gly-Phe-NH-CH2-CH2-Gly (YGFGG; not fully specified; desamino Tyr10; reduced CH2NH bond Gly13-Gly14)	0.80	0.78	–	–
desamino Tyr-NH-CH2-CH2-Phe-Gly-Gly ([Desaminotyrosyl]GFGG; also: Gly2-Phe3 bond reduced, ψ(CH2NH))	0.67	0.61	–	–
desamino[Ala^10]OGP(10-14) ([Propionyl]GFGG)	0.09	0.28	–	–
desamino[Phe^10]OGP(10-14) ([Hydrocinnamoyl]GFGG)	0.48	0.35	–	–
desamino[Tyr^10,Ala^12]OGP(10-14) [desamino[Tyr^10,Ala^12]OGP(10-14) (SEQ ID NO: 20)]	0.43	0.41	–	–
desamino[Tyr^10,Ala^12]OGP(10-14) [desamino[Tyr^10,Ala^12]OGP(10-14) (SEQ ID NO: 21)] ([Desaminotyrosyl]GAGG)	0.16	0.21	–	–
desamino[Tyr^10,Ala^13]OGP(10-14) ([Desaminotyrosyl]GFAG)	0.15	0.27	–	–
desamino[Tyr^10,Ala^14]OGP(10-14) ([Desaminotyrosyl]GFGA)	0.16	0.19	–	–
desamino[Tyr^10,D-Ala^11]OGP(10-14)	0.19	0.21	–	–
desamino[Tyr^10,D-Ala^12]OGP(10-14)	0.02	0.30	–	–
desamino[Tyr^10,D-Ala^13]OGP(10-14)	0.23	0.28	–	–
desamino[Tyr^10,D-Ala^14]OGP(10-14)	0.32	0.41	–	–
desamino[Tyr^10,Sar^11]OGP(10-14) [desamino[Tyr^10,Sar^11]OGP(10-14) (SEQ ID NO: 31)] ([Desaminotyrosyl][Sar]FGG)	0.39	0.31	–	–
desamino[Tyr^10,Sar^11]OGP(10-14) [desamino[Tyr^10,Sar^11]OGP(10-14) (SEQ ID NO: 34)]	0.14)	0.16	–	–
desamino[Tyr^10,Sar^13]OGP(10-14) ([Desaminotyrosyl]GF[Sar]G)	0.11	0.15	–	–
desamino[Tyr^10]OGP(10-13)—NH(CH2)2NH2 ([Desaminotyrosyl]GFG-{NH(CH2)2NH2})	0.17	0.18	–	–
desamino[Tyr^10]OGP(10-13)—NHEt ([Desaminotyrosyl]GFG-NHEt; SMILES CCNC(=O)CNC(=O)[C@H](Cc1ccccc1)NC(=O)CNC(=O)CCc1ccc(O)cc1)	0.20	0.19	–	–
desamino[Tyr^10]OGP(10-14)—N(Me)2 ([Desaminotyrosyl]GFGG-{N(Me)2})	0.16	0.12	–	–
desamino[Tyr^10]OGP(10-14)—NH2 ([Desaminotyrosyl]GFGG-NH2; SMILES NC(=O)CNC(=O)CNC(=O)[C@H](Cc1ccccc1)NC(=O)CNC(=O)CCc1ccc(O)cc1)	0.16	0.20	–	–
desamino[Tyr^10]OGP(10-14)—NHMe ([Desaminotyrosyl]GFGG-NHMe; SMILES CNC(=O)CNC(=O)CNC(=O)[C@H](Cc1ccccc1)NC(=O)CNC(=O)CCc1ccc(O)cc1)	0.16	0.18	–	–
desamino[Tyr^10]OGP(10-14)—OMe ([Desaminotyrosyl]GFGG-OMe; SMILES COC(=O)CNC(=O)CNC(=O)[C@H](Cc1ccccc1)NC(=O)CNC(=O)CCc1ccc(O)cc1)	0.36	0.51	less than 50%	higher than 50%
desamino[Tyr^10]OGP(10-14)—ol ([Desaminotyrosyl]GFGG-ol)	0.28	0.24	–	–
